“And” between values parts separate entries of the source, which are not always exact repeats. Identical values can stand only once.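 96-well plates; 48 h exposure; 5 concentrations. Endpoints by linear interpolation between flanking doses. Not reached: highest tested concentration assigned. Abbreviation: GI50, concentration required for 50% inhibition of growth. TGI is the concentration that stops growth completely.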
Assays:
Experiment in all cases: NCI tumour cell line growth inhibition, 48 h
[1] = test system: 786-0 renal
[2] = test system: HCT-116 colon
[3] = test system: UO-31 renal
[4] = test system: NCI-H460 lung
[5] = test system: NCI-H226 lung
[6] = test system: K-562 leukemia
[7] = test system: MDA-MB-231 breast
[8] = test system: HS 578T breast
[9] = test system: NCI-H522 lung

Row | SMILES | TGI [1] [µM] | TGI [2] | TGI [3] [µM] | TGI [4] [µM] | TGI [5] [µM] | TGI [6] [µM] | TGI [7] [µM] | TGI [8] [µM] | TGI [9] | GI50 [9] | GI50 [6]
1 | CO/C(=N\N=C\c1cc(OC)ccc1OC)c1ccncc1 | > 10 | > 10 µM | > 10 | > 10 | > 10 | > 10 |  |  |  |  | 
2 | CCOC(=O)c1cnc(-n2[nH]c(C)c(CCO)c2=O)[nH]c1=O | > 100 | > 100 µM | > 100 | > 100 | > 100 | > 100 | > 100 | > 100 |  |  | 
3 | CC1=NN(c2nc(N)nc(-c3ccccc3S(N)(=O)=O)n2)C(C)(C)C1 | > 100 | > 100 µM | > 100 | > 100 | > 100 | > 100 | > 100 | > 100 | > 100 µM |  | 
4 | CC12CC3C(CC1SCC(=O)O2)C3(C)C (stereo not given) | > 100 | > 100 µM | > 100 | > 100 |  | > 100 |  |  |  |  | 
5 | O=C(Cn1c(=O)oc2ccc(C(=O)c3ccc(F)cc3)cc21)c1ccc([N+](=O)[O-])cc1 | > 100 | > 100 µM | 84.4 | > 100 | > 100 | > 100 | > 100 | 53.5 | 80.4 µM |  | 
6 | S=c1sc2c(Cl)ncnc2n1-c1ccccc1 | 29.2 | 18.6 µM | 32.7 | 32.6 | 26.4 |  |  |  | 3.8 µM |  | 
7 | O=C(CSCC(=O)N/N=C/c1cc(I)cc(I)c1O)N/N=C/c1cc(I)cc(I)c1O | 22.2 | 33.9 µM | 44.5 | 82 | 41.1 | 37.7 | 25.1 | 39 | 35 µM |  | 
8 | C=C1C(=O)OC2/C=C(\C)C(OC(C)=O)C3OC3C(C)(O)CC(OC(=O)/C(C)=C/C)C12 (stereo not given) | 16.4 | 5.86 µM | 23 | 29.1 | 23.4 | 18.9 |  |  | 3.37 µM |  | 
9 | c1csc(-c2ccc(-c3ccc(-c4ccc(-c5cccs5)s4)s3)s2)c1 | > 100 | > 100 µM | > 100 | > 100 | > 100 | > 100 |  | > 100 |  |  | 
10 | COc1ccc(Cn2c(C)nc3c2C(=O)c2ccccc2C3=O)cc1 | 40 | 13 µM | 57.4 | 9.74 | 48.2 | 30.1 |  |  | 15.5 µM |  | 
11 | COC(=O)c1c2c(cc3c1CC1(Cc4ccccc4C1=O)C3)CCC2 (stereo not given) | > 100 | > 100 µM | > 100 | > 100 | 44.2 | > 100 | > 100 | > 100 | > 100 µM |  | 
12 | O=c1cnn(C/C=C\CO)c(=O)[nH]1 |  |  | > 100 | > 100 | > 100 | > 100 | > 100 | > 100 | > 100 µM |  | 
13 | O=C(O)CCCl | > 5000 | > 5000 µM | > 5000 | > 5000 | > 5000 | > 5000 |  |  | > 5000 µM |  | 
14 | COC(=O)C(=O)C(C(=O)Nc1cccc(C)c1C)C1Sc2ccccc2NC1=O (stereo not given) |  | > 25 µM | > 25 | > 25 | > 25 | > 25 |  |  | > 25 µM |  | 
15 | Cc1ccc(S(=O)(=O)N/N=C/c2oc(-c3cccc([N+](=O)[O-])c3)c(-c3cccc([N+](=O)[O-])c3)c2[N+](=O)[O-])cc1 | > 100 | > 100 µM | 32.3 | > 100 | > 100 | 69.9 |  |  | 28.4 µM |  | 
16 | CC[n+]1cnc(N)c2c(-c3ccc(Cl)cc3)cn(-c3ccc(C)cc3)c21 | 23.5 | 21.3 µM | 21.5 | 35.8 | 28.2 | 20.7 | 31.7 |  | 31.2 µM |  | 
17 | O=C(Nc1cccc2ccccc12)Oc1ccccc1C1CCCCC1 |  | 32.2 µM | 34.6 | 33 | 32.7 | 60.4 |  |  |  |  | 
18 | Nc1nc(N)c2ncn(CC3CCC(CO)C3)c2n1 (stereo not given) | > 100 | > 100 µM | > 100 |  | > 100 | > 100 | > 100 | > 100 |  |  | 
19 | O=C(CP(c1ccccc1)c1ccccc1)c1cccc(C(=O)CP(c2ccccc2)c2ccccc2)c1 | > 100 | > 100 µM | 50.8 | > 100 | > 100 | > 100 | > 100 | > 100 |  |  | 
20 | CCC1(O)CC(OC2CC(N(C)C)C(OC3CC4OC5CC(=O)C(C)OC5OC4C(C)O3)C(C)O2)c2c(cc3c(c2O)C(=O)c2c(O)ccc(O)c2C3=O)C1C(=O)OC (stereo not given) |  | 0.0238 µM and 0.126 µM and 0.0875 µM |  |  |  |  |  |  | 0.0319 µM and 0.0122 µM and 0.0182 µM | 0.00111 µM and 0.00788 µM | 0.000761 µM and 0.00754 µM
21 | CCC(C)[C@@H](NCc1ccccc1)[C@H](OCc1ccccc1)[C@@H]1COC(C)(C)O1 (stereo not given in full) | 46.3 | 29.2 µM | 41.3 |  | 30.6 | 59.8 | 40.4 | 70.7 |  |  | 
22 | COC(=O)N1CC2(CO)C3CC=C(C(=O)Nc4ccccc4Br)C2C1C3Br (stereo not given) | > 50 |  | > 50 | > 50 | > 50 | > 50 | > 50 | > 50 |  |  | 
